The target of one data set is T1, AR (Homo sapiens, UniProt P10275, T878A).
T1 sequence (P10275 1-920 T878A): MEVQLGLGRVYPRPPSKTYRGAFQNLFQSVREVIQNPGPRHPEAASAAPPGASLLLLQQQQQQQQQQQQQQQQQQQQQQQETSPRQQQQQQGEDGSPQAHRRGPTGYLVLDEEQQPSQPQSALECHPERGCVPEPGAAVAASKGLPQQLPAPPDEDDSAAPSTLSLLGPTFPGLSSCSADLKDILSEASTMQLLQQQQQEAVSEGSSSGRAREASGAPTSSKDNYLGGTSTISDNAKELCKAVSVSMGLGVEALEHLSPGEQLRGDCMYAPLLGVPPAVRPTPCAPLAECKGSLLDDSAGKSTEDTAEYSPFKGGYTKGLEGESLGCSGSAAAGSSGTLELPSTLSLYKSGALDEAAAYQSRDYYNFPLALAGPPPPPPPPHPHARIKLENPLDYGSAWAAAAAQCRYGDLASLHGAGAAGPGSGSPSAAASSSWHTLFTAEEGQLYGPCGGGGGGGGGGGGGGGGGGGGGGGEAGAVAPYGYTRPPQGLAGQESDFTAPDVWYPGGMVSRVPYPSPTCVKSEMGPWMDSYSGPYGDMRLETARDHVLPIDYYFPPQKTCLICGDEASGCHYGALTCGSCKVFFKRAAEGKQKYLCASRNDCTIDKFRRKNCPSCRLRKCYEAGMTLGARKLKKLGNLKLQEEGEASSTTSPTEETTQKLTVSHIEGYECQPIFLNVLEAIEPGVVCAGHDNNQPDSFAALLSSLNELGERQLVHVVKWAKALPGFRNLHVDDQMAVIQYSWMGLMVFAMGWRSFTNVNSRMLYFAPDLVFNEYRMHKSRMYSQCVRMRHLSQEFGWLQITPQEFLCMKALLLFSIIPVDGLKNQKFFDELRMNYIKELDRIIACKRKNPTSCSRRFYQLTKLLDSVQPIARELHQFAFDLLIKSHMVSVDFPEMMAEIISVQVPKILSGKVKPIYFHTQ
Kind of data set: Effects of compounds on AR expression in LNCaP cells (ELISA, DC50). It counts as cell-based. Further details: Measurement of the Effects of Drugs on the Expression of AR in Cells by ELISA Method; endogenous in cells; host or cells: LNCaP. The note with it: 24 hours of drug treatment, AR by ELISA. The procedure, abridged: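 LNCaP cells at about 15,000/well were treated for 24 h with compound at 0.0001–2 μmol/L final. AR in cell lysates was measured by ELISA (OD450). Inhibition was relative to DMSO control after blank subtraction, and DC50 was calculated from it.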
In general terms: An ELISA detects its analyte on a solid surface through an enzyme-linked reagent.

The nature of data set [1]: Pharmacokinetic studies of compounds in mice. The note with it: male mice, intragastric administration 10 mg/kg, plasma. Format: in vivo. The procedure: Activity Assay Example 3: Pharmacokinetic Studies of Compounds in Mice
In this test, 3 male mice were selected and divided into 1 group, 3 mice/group. All animals were fasted overnight before administration.
The intragastric administration dose was 10 mg/kg, and the administration volume was 10 mL/kg.
2.2 Preparation of Drug Solution
According to the animal body weight combined with the administration dose, the amount of the required drug solution was calculated. An appropriate amount of the test substance was weighed, added with 5% of the final volume of ethanol for dissolution, then added with 5% of the final volume of SolutolHS15, and finally added with PBS to the final volume, and mixed by vortex and fully dissolved to obtain a solution for intragastric administration (1 mg/mL). All solutions were prepared for immediate use.
2.3 Method of Administration
Before administration, the drug solution was placed on a magnetic stirrer in the animal laboratory and stirred for at least 10 min. During the administration process, vortex was continued to ensure uniformity of the drug solution. The theoretical volume of gavage administration was 10 mL/kg, which was administered with a syringe equipped with a gavage needle.
Before administration, the animals were weighed and the body weight of the animals involved in the experiment was recorded, and the administration volume of each animal was calculated according to the body weight. After administration, animals were promptly transferred back to the experimental cages to collect samples.
2.4 Observation of Animal Status
After administration, whether animals had abnormal reactions was observed immediately. If there were no abnormal reactions, animals were observed twice a day during the experiment. If abnormal reactions were found, they should be recorded in time, and the number of observations should be increased until the animals returned to normal or to the end of the experiment.
2.5 Sample Collection and Preservation
All experimental animals were fasted overnight before administration, and blood was collected at corresponding time points into blood collection tubes containing heparin sodium anticoagulant. After the whole blood was collected, the blood collection tube was gently shaken and placed on ice immediately, and then centrifuged (4° C., 4000 rpm, 10 min) to collect supernatant plasma samples, which were stored in a refrigerator at −80° C. before analysis.
2.6 Plasma Sample Processing and Analysis
The collected plasma samples were handed over to the Pharmacokinetic department for sample extraction, and the test substances in the plasma were extracted by protein precipitation method using organic reagents containing internal standards (acetonitrile:plasma=4:1, v/v). The extracted processed samples were submitted for quantitative concentration analysis by LC-MS/MS. According to the plasma concentration of each animal obtained by the analysis, software Kinetica (version 5.0) was used to calculate the main pharmacokinetic parameter eAUC30-120 according to the non-compartment model to evaluate the exposure amount; the test results are shown in Table 2: […]

On AR, `Cc1ncsc1-c1ccc([C@H](C)NC(=O)[C@@H]2C[C@@H](O)CN2C(=O)[C@@H](NC(=O)COCCOc2ccc(-c3ncc(N4C(=S)N(c5ccc(C#N)c(C(F)(F)F)c5F)C(=O)C4(C)C)cc3F)cc2F)C(C)(C)C)cc1` [Compound A123] showed a DC50 of 61.3 nM. Moreover, the “eAUC0.5-2 h” value in data set [1] was 287 ± 146 ng·h/mL.
For `Cc1ncsc1-c1ccc(CNC(=O)[C@@H]2C[C@@H](O)CN2C(=O)[C@@H](NC(=O)COCCOCCOc2ccc(-c3ncc(N4C(=S)N(c5ccc(C#N)c(C(F)(F)F)c5F)C(=O)C4(C)C)cc3F)cc2F)C(C)(C)C)cc1` [Compound A90] the same measures were 36.4 nM and 96 ± 28.51 ng·h/mL.
`Cc1ncsc1-c1ccc(CNC(=O)[C@@H]2C[C@@H](O)CN2C(=O)[C@@H](NC(=O)COCCCCOc2ccc(-c3ccc(N4C(=S)N(c5ccc(C#N)c(C(F)(F)F)c5F)C(=O)C4(C)C)cn3)cc2C(F)(F)F)C(C)(C)C)cc1` [Compound A84] displayed a DC50 on AR of 140 nM. For the same compound, in data set [1], the “eAUC0.5-2 h” value worked out at 774 ± 119 ng·h/mL.
For `Cc1ncsc1-c1ccc(CNC(=O)[C@@H]2C[C@@H](O)CN2C(=O)[C@@H](NC(=O)c2ccc(CNC(=O)CCCc3ccc(N4C(=S)N(c5ccc(C#N)c(C(F)(F)F)c5F)C(=O)C4(C)C)cn3)cc2)C(C)(C)C)cc1` [Compound A134] the same measures were 1130 nM and 29 ± 22 ng·h/mL.
For `Cc1ncsc1-c1ccc(CNC(=O)[C@@H]2C[C@@H](O)CN2C(=O)[C@@H](NC(=O)COCCCCOc2ccc(-c3ncc(N4C(=S)N(c5ccc(C#N)c(C(F)(F)F)c5F)C(=O)C4(C)C)cc3C(F)(F)F)cc2)C(C)(C)C)cc1` [Compound A62] the same measures were 80 nM and 498 ± 124 ng·h/mL.
For the compound `Cc1ncsc1-c1ccc(CNC(=O)[C@@H]2C[C@@H](O)CN2C(=O)[C@@H](NC(=O)COCCOCCOc2c(F)cc(-c3ncc(N4C(=S)N(c5ccc(C#N)c(C(F)(F)F)c5F)C(=O)C4(C)C)cc3F)cc2F)C(C)(C)C)cc1` [Compound A99], on AR, the DC50 was 23.2 nM. Further, in data set [1], the “eAUC0.5-2 h” value was 308 ± 288 ng·h/mL.
At AR, `Cc1ncsc1-c1ccc(CNC(=O)[C@@H]2C[C@@H](O)CN2C(=O)[C@@H](NC(=O)COCCCCCOc2c(F)cc(-c3ncc(N4C(=S)N(c5ccc(C#N)c(C(F)(F)F)c5F)C(=O)C4(C)C)cc3F)cc2F)C(C)(C)C)cc1` [Compound A97] displayed a DC50 of 98.4 nM. The “eAUC0.5-2 h” value in data set [1] turned out to be 1690 ± 158 ng·h/mL.
For `Cc1ncsc1-c1ccc(CNC(=O)[C@@H]2C[C@@H](O)CN2C(=O)[C@@H](NC(=O)[C@H]2CC[C@H](CNC(=O)c3ccc(-c4ccc(N5C(=S)N(c6ccc(C#N)c(C(F)(F)F)c6F)C(=O)C5(C)C)cn4)cc3F)CC2)C(C)(C)C)cc1` [Compound A105], in that order: 188 nM and 379 ± 300 ng·h/mL.
With `Cc1ncsc1-c1ccc([C@H](C)NC(=O)[C@@H]2C[C@@H](O)CN2C(=O)[C@@H](NC(=O)COCCCCOc2ccc(-c3ccc(N4C(=S)N(c5ccc(C#N)c(C(F)(F)F)c5F)C(=O)C4(C)C)cn3)cn2)C(C)(C)C)cc1` [Compound A126], the DC50 at AR was 55 nM. For the same compound, in data set [1], the “eAUC0.5-2 h” value worked out at 1110 ± 158 ng·h/mL.
For `Cc1ncsc1-c1ccc(CNC(=O)[C@@H]2C[C@@H](O)CN2C(=O)[C@@H](NC(=O)COCCCCOc2ccc(-c3ncc(N4C(=S)N(c5ccc(C#N)c(C(F)(F)F)c5F)C(=O)C4(C)C)cc3F)cc2F)C(C)(C)C)cc1` [Compound A70], in that order: 62.1 nM and 1686 ± 938 ng·h/mL.
For `Cc1ncsc1-c1ccc(CNC(=O)[C@@H]2C[C@@H](O)CN2C(=O)[C@@H](NC(=O)COCCCCCOc2ccc(-c3ccc(N4C(=S)N(c5ccc(C#N)c(C(F)(F)F)c5F)C(=O)C4(C)C)cn3)cc2)C(C)(C)C)cc1` [Compound A73] the same measures were 49.3 nM and 189 ± 108 ng·h/mL.

The values are drawn from US12606552B2, “Bifunctional compound, preparation method therefor, and use thereof” (SUZHOU KINTOR PHARMACEUTICALS, INC., priority 2020, dated 2026).
